From patent US12187706B2, “NLRP3 modulators” (INNATE TUMOR IMMUNITY, INC., priority 2019, dated 2025) come the findings set out here.

A word on the EC50: it is the concentration needed to bring the measured effect to its halfway point.

SMILES strings stand for the structures.

What all share (assay type): cell-based
The target of one assay is T1, human TLR7 (Homo sapiens, UniProt Q9NYK1).
T1 construct: host or cells: human HEK-Blue cells with NF-kB/AP1-inducible SEAP reporter
T1 sequence (Q9NYK1 27-1049): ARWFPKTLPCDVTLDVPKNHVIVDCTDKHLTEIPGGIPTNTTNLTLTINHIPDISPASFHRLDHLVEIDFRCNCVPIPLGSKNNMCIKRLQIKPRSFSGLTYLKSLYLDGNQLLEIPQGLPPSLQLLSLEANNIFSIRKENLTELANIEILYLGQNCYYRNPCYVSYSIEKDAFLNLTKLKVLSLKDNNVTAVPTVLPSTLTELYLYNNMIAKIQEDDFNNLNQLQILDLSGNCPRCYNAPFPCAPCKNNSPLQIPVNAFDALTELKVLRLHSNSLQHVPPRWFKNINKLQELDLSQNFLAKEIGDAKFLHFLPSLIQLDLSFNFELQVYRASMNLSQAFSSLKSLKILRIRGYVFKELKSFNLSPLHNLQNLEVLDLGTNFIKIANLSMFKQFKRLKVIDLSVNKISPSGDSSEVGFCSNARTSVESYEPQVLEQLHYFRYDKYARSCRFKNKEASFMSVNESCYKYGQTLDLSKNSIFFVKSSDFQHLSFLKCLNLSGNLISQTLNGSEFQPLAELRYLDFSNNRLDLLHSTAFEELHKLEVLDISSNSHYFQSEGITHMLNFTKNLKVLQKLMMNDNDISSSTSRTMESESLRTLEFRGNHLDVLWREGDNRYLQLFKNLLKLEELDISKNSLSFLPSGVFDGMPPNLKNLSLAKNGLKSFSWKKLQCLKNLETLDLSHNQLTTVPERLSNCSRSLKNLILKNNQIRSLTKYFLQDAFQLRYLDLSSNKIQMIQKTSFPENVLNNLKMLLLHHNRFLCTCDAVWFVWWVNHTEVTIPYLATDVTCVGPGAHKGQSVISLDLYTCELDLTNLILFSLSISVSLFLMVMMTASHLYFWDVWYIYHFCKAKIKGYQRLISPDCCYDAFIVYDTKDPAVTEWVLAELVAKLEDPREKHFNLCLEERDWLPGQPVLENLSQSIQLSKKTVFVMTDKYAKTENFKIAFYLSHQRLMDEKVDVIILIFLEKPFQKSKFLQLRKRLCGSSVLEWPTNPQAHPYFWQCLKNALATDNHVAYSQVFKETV
In words: In vitro human TLR7 reporter assay (HEK-Blue, NF-kB/AP1-inducible SEAP). Conditions: HEK-Blue TLR7 cells, SEAP reporter; read-out: TLR7 Agonist EC50 value. As to the method:
(§1) In Vitro Human TLR7 and TLR8 Binding Reporter Assays Logarithmically-growing human HEK-Blue cells co-expressing a TLR7 or TLR8 gene and a NF-kB/AP1-inducible SEAP (secreted embryonic alkaline phosphatase; […] Cellular SEAP production is measured using an Envision plate reader instrument thirty minutes after adding freshly-made Quanti-Blue reagent (prepared by following manufacturer instructions; Invivogen, San Diego, CA) to the HEK-Blue TLR Nf-kB-SEAP cell reactions. All EC50 values (half-maximal effective concentration) are determined using proprietary data analysis software.

In the next assay the target is T2, NLRP3 (Homo sapiens, UniProt Q96P20).
T2 construct: host or cells: PMA-differentiated THP-1 cells
As to the kind of experiment: Measurement of IL-1β production in PMA-differentiated THP-1 cells (NLRP3 hIL1B). An outline of the steps: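 THP-1 cells differentiated with PMA, then replated in RPMI with 2% FBS and exposed to compound for 4 h (alternative: 2 h; hTRF protocol: 2 h at 37 °C, top concentration 10 μM). Supernatant IL-1β was quantified by ELISA or HTRF. Final DMSO 1%, with vehicle control.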

The target of a further assay is T3, human TLR8 (Homo sapiens, UniProt Q9NR97).
T3 construct: host or cells: human HEK-Blue cells with NF-kB/AP1-inducible SEAP reporter
T3 sequence (Q9NR97 27-1041): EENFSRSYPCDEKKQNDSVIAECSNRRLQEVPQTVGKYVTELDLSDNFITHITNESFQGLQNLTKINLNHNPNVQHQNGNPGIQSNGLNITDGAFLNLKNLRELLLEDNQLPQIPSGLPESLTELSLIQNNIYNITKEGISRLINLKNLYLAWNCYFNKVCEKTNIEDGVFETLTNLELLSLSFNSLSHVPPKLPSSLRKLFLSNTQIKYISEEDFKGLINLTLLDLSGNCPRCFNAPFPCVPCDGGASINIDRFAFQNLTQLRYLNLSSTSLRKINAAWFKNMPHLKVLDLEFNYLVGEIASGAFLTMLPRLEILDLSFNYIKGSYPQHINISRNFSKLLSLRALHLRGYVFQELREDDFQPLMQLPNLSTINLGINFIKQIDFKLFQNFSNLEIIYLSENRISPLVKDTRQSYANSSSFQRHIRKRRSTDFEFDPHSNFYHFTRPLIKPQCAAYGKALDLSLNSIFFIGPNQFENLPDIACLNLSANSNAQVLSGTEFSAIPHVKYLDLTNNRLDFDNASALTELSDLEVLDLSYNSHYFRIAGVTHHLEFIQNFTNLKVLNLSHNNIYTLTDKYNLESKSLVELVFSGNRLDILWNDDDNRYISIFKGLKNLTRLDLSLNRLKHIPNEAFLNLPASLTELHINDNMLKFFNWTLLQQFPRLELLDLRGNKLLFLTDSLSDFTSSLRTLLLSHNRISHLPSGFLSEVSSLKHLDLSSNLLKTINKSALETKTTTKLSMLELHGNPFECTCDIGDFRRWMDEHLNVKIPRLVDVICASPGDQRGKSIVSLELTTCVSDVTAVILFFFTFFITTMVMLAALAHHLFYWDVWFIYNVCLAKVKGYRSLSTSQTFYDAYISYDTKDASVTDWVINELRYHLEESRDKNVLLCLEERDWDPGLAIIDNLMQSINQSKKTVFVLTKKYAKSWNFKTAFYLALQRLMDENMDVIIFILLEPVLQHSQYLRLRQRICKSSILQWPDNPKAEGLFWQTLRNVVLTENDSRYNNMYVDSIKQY
As to the kind of experiment: In vitro human TLR8 reporter assay (HEK-Blue, NF-kB/AP1-inducible SEAP). Conditions: at 62.5 μM. As to the method:
as §1
In general terms: In a reporter assay the amount or activity of a reporter protein is the signal.

T2 sequence (Q96P20 whole entry): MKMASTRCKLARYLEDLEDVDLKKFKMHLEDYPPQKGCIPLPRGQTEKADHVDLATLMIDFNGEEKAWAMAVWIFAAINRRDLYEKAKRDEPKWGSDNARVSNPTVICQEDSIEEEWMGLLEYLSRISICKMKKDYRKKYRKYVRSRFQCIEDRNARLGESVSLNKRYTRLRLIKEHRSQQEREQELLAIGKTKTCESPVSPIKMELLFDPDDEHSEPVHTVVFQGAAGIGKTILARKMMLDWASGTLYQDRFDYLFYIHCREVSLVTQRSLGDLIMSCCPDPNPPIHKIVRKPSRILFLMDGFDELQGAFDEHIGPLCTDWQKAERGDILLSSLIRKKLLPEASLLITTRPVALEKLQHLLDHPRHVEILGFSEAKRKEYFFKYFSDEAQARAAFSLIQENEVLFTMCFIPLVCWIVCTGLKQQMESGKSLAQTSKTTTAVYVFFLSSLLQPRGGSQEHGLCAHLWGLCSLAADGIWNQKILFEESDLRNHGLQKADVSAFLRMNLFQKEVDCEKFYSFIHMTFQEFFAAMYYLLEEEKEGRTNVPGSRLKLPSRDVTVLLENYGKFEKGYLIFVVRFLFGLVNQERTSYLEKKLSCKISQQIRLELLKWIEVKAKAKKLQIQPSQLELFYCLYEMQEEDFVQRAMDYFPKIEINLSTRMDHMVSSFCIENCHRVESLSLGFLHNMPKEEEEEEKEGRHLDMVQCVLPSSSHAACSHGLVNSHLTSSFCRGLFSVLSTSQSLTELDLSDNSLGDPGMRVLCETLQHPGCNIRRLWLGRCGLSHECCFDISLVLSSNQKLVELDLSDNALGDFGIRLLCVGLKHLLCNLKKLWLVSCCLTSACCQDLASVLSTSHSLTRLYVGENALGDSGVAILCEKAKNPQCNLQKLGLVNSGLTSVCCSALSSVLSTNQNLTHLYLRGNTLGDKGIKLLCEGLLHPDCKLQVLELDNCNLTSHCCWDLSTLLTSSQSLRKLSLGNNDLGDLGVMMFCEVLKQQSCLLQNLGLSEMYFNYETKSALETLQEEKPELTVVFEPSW

For the compound `CCCCNc1nc(N)nc2cc(-c3ccn[nH]3)ccc12` [Example 92], the EC50 at human TLR7 is above 1 µM; on NLRP3, 0.2 µM.

`CCCCCNc1nc(N)nc2cc(-c3ccn[nH]3)ccc12` [Example 93]: the EC50 at human TLR7 is 1 to 20 µM; on NLRP3, 0.27 µM.

Take `CCCCCNc1nc(N)nc2cc(-c3cc[nH]n3)cc(F)c12` [Example 125]: the concentration giving a half-maximal response (EC50) on human TLR7 is 1 to 20 µM; on NLRP3 it was 0.71 µM.

Compound `Cn1c(CCNc2nc(N)nc3cc(-c4ccn[nH]4)ccc23)nc2ccccc21` [Example 165] displayed a TLR8 activity on human TLR8 below 50%. On NLRP3, the half-maximal effective concentration (EC50) came out at 4.12 µM.
